Source: patent US8008354B2, “Death receptor sensitizing compounds and methods of use therefor” (Burnham Institute for Medical Research, priority 2006, dated 2011)

What was measured:
PPC-1 cells [1] = experiment: Nuclear fragmentation of suspension PPC-1 cells overexpressing FLIP, CrmA or BclXL; assay type: cell-based, human; settings: 5809354 60 μM or staurosporine 0.5 μM, thirty hours
Description: FIG. 15. 5809354 sensitizes cells to anoikis through a caspase 8 dependent mechanism. (A) PPC-1 cells (5×10^4) were cultured under suspension conditions overnight and then treated with 5809354 in the presence or absence of the pan-caspase inhibitor z-VAD-fink (100 μM). Thirty hours after incubation, anoikis was determined by flow cytometry to detect cell surface annexin V expression and PI uptake. Data represents the mean±SEM percent of viable cells or colonies compared to untreated controls. (B) PPC-1 cells (5×10^4) were cultured in suspension conditions overnight and then treated with 5809354 (60 μM). At increasing times after treatment, caspase activation was detected with FITC-labeled peptides that bind preferentially and irreversibly to caspase 3/7, 8, or 9. Caspase activation was monitored by flow cytometry to quantify the percentage of fluorescently labeled cells. […] At increasing times after incubation, total cellular protein was isolated and analyzed by SDS-PAGE immunoblotting using anti-caspase 8 and anti-actin antibodies. * indicates cleaved caspase 8. […] Thirty hours after incubation, apoptosis was measured by cell surface annexin V expression and PI uptake. […] Ten hours after incubation, cell viability was measured using the MTS assay. […] EGFP expression and nuclear morphology were analyzed by fluorescence microscopy. […]

PPC-1 cells [2] = experiment: Anoikis of PPC-1 cells in suspension versus adherent conditions (annexin V/PI, DAPI, colony formation); assay type: cell-based, human
Description: FIG. 12. Depletion of endogenous FLIP levels by siRNA sensitizes malignant cells to anoikis. (A) PPC-1 cells were seeded in adherent conditions overnight and then transfected with 25 nM anti-FLIP siRNA (siFLIP) or control luciferase siRNA (siCtrl). Thirty hours after transfection, cells were harvested, total protein isolated and analyzed by SDS-PAGE immunoblotting using anti-FLIP and anti-actin antibodies. (B) PPC-1 cells were transfected with increasing concentrations of siFLIP or siCtrl. After transfection, cells were treated with CH-11 Fas activating antibody (100 ng/ml). Thirty hours after incubation, cells were harvested and apoptosis measured by flow cytometry to detect cell surface annexin V expression and PI uptake. Data represents the mean±SEM percent of viable cells. (C) PPC-1 cells were transfected with increasing concentrations of siFLIP or siCtrl. After transfection, cells were subcultured under suspension conditions for 30 hours and then harvested. Apoptosis was measured by flow cytometry to detect cell surface annexin V expression and PI uptake. Data represents the mean±SEM of percent of viable cells. (D) Equal volumes of PPC-1 cells from panel C were replated under adherent conditions to permit clonogenic growth. One week after replating, cells were stained with methylene blue and the number of colonies counted. Data represents the mean±SEM percent of colonies compared to untreated controls.
FIG. 13. Small molecule down-regulation of FLIP sensitizes prostate cancer cells to anoikis. (A) PPC-1 cells were seeded overnight in adherent conditions and then treated with increasing concentrations of 5809354 for 16 hours. After incubation, cells were harvested. Total cellular RNA was extracted and mRNA levels of the long isoform of FLIP (FLIPL), the short isoform of FLIP (FLIPS), or rRNA levels of 18S were detected by real-time RT-PCR. Data were normalized using the ΔΔCT method and expressed as the mean±SEM percent of […] expression relative to untreated controls. (B) PPC-1 cells were cultured and treated as in panel A. Total cellular protein was isolated and analyzed by SDS-PAGE immunoblotting using anti-FLIP and anti-Actin antibodies. (C) PPC-1 cells were seeded overnight in adherent conditions and then exposed to increasing concentrations of 5809354 in the presence or absence of Fas-activating antibody (CH-11, 100 ng/mL). Thirty hours after incubation, cell viability was determined using the MTS assay. Data represents the mean±SEM of percent of viable cells. (D) PPC-1 cells were seeded overnight in adherent or suspension conditions and then treated with increasing concentrations of 5809354 for 30 hours. After incubation, apoptosis was measured by flow cytometry to detect cell surface annexin V expression and PI. Data represents the mean±SEM of percent of viable cells. (E) Cells were harvested, fixed, stained with DAPI, and nuclear morphology analyzed by fluorescence microscopy. Arrowheads refer to fragmented nuclei indicative of apoptosis. […] Thirty hours after incubation, cells were harvested and equal volumes plated in a colony formation assay. One week later, cells were stained with methylene blue and the number of colonies counted. Data represents the mean ±SEM percent of colonies relative to untreated controls.
FIG. 15. 5809354 sensitizes cells to anoikis through a caspase 8 dependent mechanism. (A) PPC-1 cells (5×10^4) were cultured under suspension conditions overnight and then treated with 5809354 in the presence or absence of the pan-caspase inhibitor z-VAD-fink (100 μM). Thirty hours after incubation, anoikis was determined by flow cytometry to detect cell surface annexin V expression and PI uptake. Data represents the mean±SEM percent of viable cells or colonies compared to untreated controls. (B) PPC-1 cells (5×10^4) were cultured in suspension conditions overnight and then treated with 5809354 (60 μM). […]

| Molecule | effect of overexpressed FLIP, CrmA or BclXL on anoikis (PPC-1 cells [1]) | sensitization to anoikis (PPC-1 cells [2]; suspension conditions, 30 hours) | effect of z-VAD-fmk on anoikis (PPC-1 cells [2]; suspension conditions, z-VAD-fmk 100 μM) | apoptosis under adherent conditions (PPC-1 cells [2]; up to five days after treatment) | apoptosis in suspension versus adherent cells (PPC-1 cells [2]; thirty hours) |
| --- | --- | --- | --- | --- | --- |
| 4-(4-chloro-2-methylphenoxy)-N-hydroxybutanamide [compound 5809354] | attenuated 5809354-mediated anoikis | sensitized cells to anoikis | z-VAD-fmk inhibited the ability of 5809354 to promote anoikis | did not induce apoptosis | – |
| CN[C@@H]1C[C@H]2O[C@@](C)([C@@H]1OC)n1c3ccccc3c3c4c(c5c6ccccc6n2c5c31)C(=O)NC4 [staurosporine, reference compound] | overexpression of BclXL, but not CrmA, protected | – | – | – | did not discriminate between suspension and adherent cells |
